The record followed here is patent US20220340566A1, “BENZYL AMINE-CONTAINING 5,6-HETEROAROMATIC COMPOUNDS USEFUL AGAINST MYCOBACTERIAL INFECTION” (priority 2019, published 2022).

Like-named read-outs stand apart in the source and are kept apart here.

Series [1] relates to Mycobacterium avium ATCC700898. Description: Determination of IC85 against M. avium (resazurin fluorescence). It counts as cell-based. As to conditions: 37° C., 3 days incubation then resazurin, fluorescence one day later. For orientation: The colour change of resazurin is a common sign of viable cells or microbes.
Series [2] in a line: Metabolic stability test in pooled human liver microsomes. Type of series: in vitro ADME. To be noted: human liver microsomes 0.5 mg protein/mL, 1 mmol/L NADPH, 37° C., 30 minutes. The protocol: Using a commercially available pooled human liver microsomes, a compound of the present invention was reacted for a constant time, a remaining rate was calculated by comparing a reacted sample and an unreacted sample, thereby, a degree of metabolism in liver was assessed.
A reaction was performed (oxidative reaction) at 37° C. for 0 minute or 30 minutes in the presence of 1 mmol/L NADPH in 0.2 mL of a buffer (50 mmol/L Tris-HCl pH 7.4, 150 mmol/L potassium chloride, 10 mmol/L magnesium chloride) containing 0.5 mg protein/mL of human liver microsomes. After the reaction, 50 μL of the reaction solution was added to 100 μL of a methanol/acetonitrile=1/1 (v/v), mixed and centrifuged at 3000 rpm for 15 minutes. The compound of the present invention in the supernatant was quantified by LC/MS/MS or solid phase extraction (SPE)/MS, and a remaining amount of the compound of the present invention after the reaction was calculated, letting a compound amount at 0 minute reaction time to be 100%.

The mark [3] stands for this setting: Mycobacterium avium, ATCC700898, M. avium ATCC700898, CAMHB medium, read-out: IC85.

Take `Cc1ccn2c(C(=O)NCc3ccc(C4CCN(c5ccc(OC(F)(F)F)cc5)CC4)c(F)c3)c(C)nc2c1` [Compound I-1-1]: the IC85 in series [1] (setting [3]) was 0.017 µM. Moreover, the “MS_h_% (remaining amount of compound after reaction, 0 minute = 100%)” value in series [2] turned out to be 75%.

As to `Cc1ccn2c(C(=O)NCc3ccc(N4CCN(c5ccc(OC(F)(F)F)cc5)[C@@H](C)C4)c(F)c3)c(C)nc2c1` [Compound I-1-2], the IC85 in series [1] (setting [3]) was 0.021 µM. The “MS_h_% (remaining amount of compound after reaction, 0 minute = 100%)” value in series [2] is 86%.

`CCc1nc2ccc(Cl)cn2c1C(=O)NCc1ccc(N2CCN(c3ccc(OC(F)(F)F)cc3)[C@@H](C)C2)c(F)c1` [Compound I-1-3]: the IC85 in series [1] (setting [3]) is 0.003 µM. In series [2], the “MS_h_% (remaining amount of compound after reaction, 0 minute = 100%)” value is 66%.

`Cc1ccn2c(C(=O)NCc3ccc(C4CCN(c5ccc(OC(C)C)cc5)CC4)c(F)c3)c(C)nc2c1` [Compound I-1-4]: the IC85 in series [1] (setting [3]) stood at 0.1 µM. Also, in series [2], the “MS_h_% (remaining amount of compound after reaction, 0 minute = 100%)” value is 88%.

Take `Cc1ccn2c(C(=O)NCc3ccc(C4CCN(c5ccc(OCCF)cc5)CC4)c(F)c3)c(C)nc2c1` [Compound I-1-5]: the IC85 in series [1] (setting [3]) was 0.048 µM. Moreover, the “MS_h_% (remaining amount of compound after reaction, 0 minute = 100%)” value in series [2] amounted to 70%.

On to `Cc1ccn2c(C(=O)NCc3ccc(C4CCN(c5ccc(OC(F)(F)F)cn5)CC4)c(C)c3)c(C)nc2c1` [Compound I-1-7], for which, in series [1] (setting [3]), the IC85 was 0.17 µM. The “MS_h_% (remaining amount of compound after reaction, 0 minute = 100%)” value in series [2] was determined as 87%.

Take `Cc1ccn2c(C(=O)NCc3ccc(C4CCN(c5ccc(OC(F)(F)F)cc5)CC4)cc3F)c(C)nc2c1` [Compound I-1-8]: the IC85 in series [1] (setting [3]) stood at 0.58 µM. In series [2], the “MS_h_% (remaining amount of compound after reaction, 0 minute = 100%)” value came to 86%.

Take `Cc1ccn2c(C(=O)NCc3ccc(C4CCN(c5ccc(OC(C)C)cc5)CC4)cc3F)c(C)nc2c1` [Compound I-1-9]: the IC85 in series [1] (setting [3]) was determined as 0.94 µM. For the same compound, the “MS_h_% (remaining amount of compound after reaction, 0 minute = 100%)” value in series [2] is listed as 82%.

In the case of `CCc1nc2ccc(Cl)cn2c1C(=O)NCc1ccc(C2CCN(c3ccc(OC(F)(F)F)cc3)CC2)cc1F` [Compound I-1-10], in series [1] (setting [3]), the IC85 was found to be 0.0031 µM. The “MS_h_% (remaining amount of compound after reaction, 0 minute = 100%)” value in series [2] worked out at 60%.

With `Cc1ccn2c(C(=O)NCc3ccc(C4CCN(c5ccc(OC(F)(F)F)cn5)CC4)cc3F)c(C)nc2c1` [Compound I-1-11], the IC85 in series [1] (setting [3]) worked out at 0.089 µM. The “MS_h_% (remaining amount of compound after reaction, 0 minute = 100%)” value in series [2] is on record as 72%.

For the compound `Cc1ccn2c(C(=O)NCc3ccc(N4CCN(c5ccc(OC(F)(F)F)cc5)[C@H](C)C4)c(F)c3)c(C)nc2c1` [Compound I-1-12], the IC85 in series [1] (setting [3]) is 0.07 µM. Moreover, in series [2], the “MS_h_% (remaining amount of compound after reaction, 0 minute = 100%)” value was found to be 64%.

As for `Cc1cc2nc(C)c(C(=O)NCc3ccc(C4CCN(c5ccc(OC(F)(F)F)cc5)CC4)c(F)c3)n2cc1Cl` [Compound I-1-13], the IC85 in series [1] (setting [3]) was 0.057 µM. In addition, the “MS_h_% (remaining amount of compound after reaction, 0 minute = 100%)” value in series [2] worked out at 82%.

As to `Cc1nc2cc(C(F)(F)F)ccn2c1C(=O)NCc1ccc(C2CCN(c3ccc(OC(F)(F)F)cc3)CC2)c(F)c1` [Compound I-1-14], in series [1] (setting [3]), the IC85 is 0.76 µM. Further, the “MS_h_% (remaining amount of compound after reaction, 0 minute = 100%)” value in series [2] stood at 79%.

On to `Cc1ccn2c(C(=O)NCc3ccc(C4CCN(c5ccc(OC(F)(F)F)cc5)CC4)c(F)c3)c(C(F)(F)F)nc2c1` [Compound I-1-15], for which the IC85 in series [1] (setting [3]) was determined as 0.057 µM. The “MS_h_% (remaining amount of compound after reaction, 0 minute = 100%)” value in series [2] is given as 71%.

On to `Cc1ccc2nc(C)c(C(=O)NCc3ccc(C4CCN(c5ccc(OC(F)(F)F)cc5)CC4)c(F)c3)n2c1` [Compound I-1-16], for which the IC85 in series [1] (setting [3]) turned out to be 0.0016 µM. In addition, the “MS_h_% (remaining amount of compound after reaction, 0 minute = 100%)” value in series [2] amounted to 67%.

On to `O=C(NCc1ccc(C2CCN(c3ccc(OC(F)(F)F)cc3)CC2)c(F)c1)c1c(C(F)(F)F)nc2ccc(Cl)cn12` [Compound I-1-17], for which the IC85 in series [1] (M. avium ATCC700898, CAMHB medium) stood at 0.013 µM. In addition, the “MS_h_% (remaining amount of compound after reaction, 0 minute = 100%)” value in series [2] amounted to 63%.

On to `Cc1nc2ccc(F)cn2c1C(=O)NCc1ccc(C2CCN(c3ccc(OC(F)(F)F)cc3)CC2)c(F)c1` [Compound I-1-18], for which, in series [1] (setting [3]), the IC85 amounted to 0.011 µM. Further, the “MS_h_% (remaining amount of compound after reaction, 0 minute = 100%)” value in series [2] is 85%.
